Assay results taken from ChEMBL document CHEMBL4346705, “(±)-trans-Dihydronarciclasine and (±)-trans-dihydrolycoricidine analogues modified in their ring A: Evaluation of their anticancer activity and a SAR study” (2019).

What was measured:
Assay type in all cases: functional
NCI/ADR-RES = assay: Antiproliferative activity against human NCI-ADR-RES cells assessed as cell viability at 10^-5 M incubated for 48 hrs by sulforhodamine B assay relative to control; details: read-out: Activity
MDA-MB-231 = assay: Antiproliferative activity against human MDA-MB-231 cells assessed as cell viability at 10^-5 M incubated for 48 hrs by sulforhodamine B assay relative to control; details: MDA-MB-231, 48 h, read-out: Activity
MDA-MB-435 = assay: Antiproliferative activity against human MDA-MB-435 cells assessed as cell viability at 10^-5 M incubated for 48 hrs by sulforhodamine B assay relative to control; details: MDA-MB-435, 48 h, read-out: Activity
HOP-62 = assay: Antiproliferative activity against human HOP62 cells assessed as cell viability at 10^-5 M incubated for 48 hrs by sulforhodamine B assay relative to control; details: HOP-62, 48 h, read-out: Activity
HT-29 = assay: Antiproliferative activity against human HT-29 cells assessed as cell viability at 10^-5 M incubated for 48 hrs by sulforhodamine B assay relative to control; details: HT-29, 48 h, read-out: Activity
OVCAR-8 = assay: Antiproliferative activity against human OVCAR8 cells assessed as cell viability at 10^-5 M incubated for 48 hrs by sulforhodamine B assay relative to control; details: OVCAR-8, 48 h, read-out: Activity
RPMI-8226 = assay: Antiproliferative activity against human RPMI8226 cells assessed as cell viability at 10^-5 M incubated for 48 hrs by sulforhodamine B assay relative to control; details: RPMI-8226, 48 h, read-out: Activity
786-0 = assay: Antiproliferative activity against human 786-0 cells assessed as cell viability at 10^-5 M incubated for 48 hrs by sulforhodamine B assay relative to control; details: 786-0, 48 h, read-out: Activity
OVCAR-3 [1] = assay: Cytotoxicity against human OVCAR3 cells assessed as growth inhibition after 48 hrs by sulforhodamine B assay; details: OVCAR-3, 48 h
SNB-75 = assay: Antiproliferative activity against human SNB75 cells assessed as cell viability at 10^-5 M incubated for 48 hrs by sulforhodamine B assay relative to control; details: SNB-75, 48 h, read-out: Activity
CAKI-1 = assay: Antiproliferative activity against human Caki1 cells assessed as cell viability at 10^-5 M incubated for 48 hrs by sulforhodamine B assay relative to control; details: CAKI-1, 48 h, read-out: Activity
NCI-H522 = assay: Antiproliferative activity against human NCI-H522 cells assessed as cell viability at 10^-5 M incubated for 48 hrs by sulforhodamine B assay relative to control; details: NCI-H522, 48 h, read-out: Activity
COLO 205 = assay: Antiproliferative activity against human COLO205 cells assessed as cell viability at 10^-5 M incubated for 48 hrs by sulforhodamine B assay relative to control; details: COLO 205, 48 h, read-out: Activity
SN12C = assay: Antiproliferative activity against human SN12C cells assessed as cell viability at 10^-5 M incubated for 48 hrs by sulforhodamine B assay relative to control; details: read-out: Activity
NCI-H460 = assay: Cytotoxicity against human NCI-H460 cells assessed as growth inhibition after 48 hrs by sulforhodamine B assay; details: NCI-H460, 48 h
K562 = assay: Antiproliferative activity against human K562 cells assessed as cell viability at 10^-5 M incubated for 48 hrs by sulforhodamine B assay relative to control; details: K562, 48 h, read-out: Activity
HCT-116 = assay: Antiproliferative activity against human HCT116 cells assessed as cell viability at 10^-5 M incubated for 48 hrs by sulforhodamine B assay relative to control; details: HCT-116, 48 h, read-out: Activity
NCI-H23 = assay: Antiproliferative activity against human NCI-H23 cells assessed as cell viability at 10^-5 M incubated for 48 hrs by sulforhodamine B assay relative to control; details: NCI-H23, 48 h, read-out: Activity
HCT-15 = assay: Antiproliferative activity against human HCT15 cells assessed as cell viability at 10^-5 M incubated for 48 hrs by sulforhodamine B assay relative to control; details: HCT-15, 48 h, read-out: Activity
OVCAR-3 [2] = assay: Antiproliferative activity against human OVCAR3 cells assessed as cell viability at 10^-5 M incubated for 48 hrs by sulforhodamine B assay relative to control; details: OVCAR-3, 48 h, read-out: Activity
UACC-257 = assay: Antiproliferative activity against human UACC257 cells assessed as cell viability at 10^-5 M incubated for 48 hrs by sulforhodamine B assay relative to control; details: UACC-257, 48 h, read-out: Activity
ACHN = assay: Antiproliferative activity against human ACHN cells assessed as cell viability at 10^-5 M incubated for 48 hrs by sulforhodamine B assay relative to control; details: read-out: Activity
UACC-62 = assay: Antiproliferative activity against human UACC62 cells assessed as cell viability at 10^-5 M incubated for 48 hrs by sulforhodamine B assay relative to control; details: UACC-62, 48 h, read-out: Activity
KM12 = assay: Antiproliferative activity against human KM12 cells assessed as cell viability at 10^-5 M incubated for 48 hrs by sulforhodamine B assay relative to control; details: KM12, 48 h, read-out: Activity
A549 = assay: Antiproliferative activity against human A549 cells assessed as cell viability at 10^-5 M incubated for 48 hrs by sulforhodamine B assay relative to control; details: A549, 48 h, read-out: Activity
OVCAR-5 = assay: Cytotoxicity against human OVCAR5 cells assessed as growth inhibition after 48 hrs by sulforhodamine B assay; details: OVCAR-5, 48 h
PC-3 = assay: Antiproliferative activity against human PC3 cells assessed as cell viability at 10^-5 M incubated for 48 hrs by sulforhodamine B assay relative to control; details: PC-3, 48 h, read-out: Activity
UO-31 = assay: Antiproliferative activity against human UO31 cells assessed as cell viability at 10^-5 M incubated for 48 hrs by sulforhodamine B assay relative to control; details: UO-31, 48 h, read-out: Activity
HOP-92 = assay: Antiproliferative activity against human HOP92 cells assessed as cell viability at 10^-5 M incubated for 48 hrs by sulforhodamine B assay relative to control; details: HOP-92, 48 h, read-out: Activity
HL-60(TB) = assay: Antiproliferative activity against human HL-60(TB) cells assessed as cell viability at 10^-5 M incubated for 48 hrs by sulforhodamine B assay relative to control; details: HL-60, 48 h, read-out: Activity
SK-MEL-28 = assay: Antiproliferative activity against human SK-MEL-28 cells assessed as cell viability at 10^-5 M incubated for 48 hrs by sulforhodamine B assay relative to control; details: SK-MEL-28, 48 h, read-out: Activity

| Compound | viability at 10 µM (NCI/ADR-RES) | viability at 10 µM (MDA-MB-231) | viability at 10 µM (MDA-MB-435) | viability at 10 µM (HOP-62) | viability at 10 µM (HT-29) | viability at 10 µM (OVCAR-8) | viability at 10 µM (RPMI-8226) | viability at 10 µM (786-0) | viability at 10 µM (SNB-75) | viability at 10 µM (CAKI-1) | viability at 10 µM (NCI-H522) | viability at 10 µM (COLO 205) | viability at 10 µM (SN12C) | viability at 10 µM (K562) | viability at 10 µM (HCT-116) | viability at 10 µM (NCI-H23) | viability at 10 µM (HCT-15) | viability at 10 µM (OVCAR-3 [2]) | viability at 10 µM (UACC-257) | viability at 10 µM (ACHN) | also measured |
| --- | --- | --- | --- | --- | --- | --- | --- | --- | --- | --- | --- | --- | --- | --- | --- | --- | --- | --- | --- | --- | --- |
| O=C1NC2C(CC(O)C(O)C2O)c2cc3c(c(O)c21)OCO3 (racemic) | 1.95% | -27.9% | -42.2% | -18.9% | -14.9% | -7.71% | -24.2% | -10.8% | -25.3% | -7.77% | -32.6% | -38.2% | -18.4% | 1.86% | -1.49% | -14.9% | 1.81% | -10.8% | -21.8% | -45.5% | GI50 (OVCAR-3 [1]): 0.0933 µM; TGI (OVCAR-3 [1]): 0.48 µM; GI50 (NCI-H460): 0.0433 µM; TGI (NCI-H460): 0.49 µM; viability at 10 µM (UACC-62): -48.4%; viability at 10 µM (KM12): -11.5%; viability at 10 µM (A549): -8.4%; GI50 (OVCAR-5): 0.17 µM; TGI (OVCAR-5): 1.05 µM; viability at 10 µM (PC-3): -8.66%; viability at 10 µM (UO-31): -31%; viability at 10 µM (HOP-92): -19%; viability at 10 µM (HL-60(TB)): -37.8% |
| O=C1NC2C(CC(O)C(O)C2O)c2cc3c(c(O)c21)OCCO3 (racemic) | -0.44% | -24.1% | 1.45% | -26.5% | -14.5% | -13.8% | -28.1% | -1.5% | -4.29% | 4.9% | -36.1% | -49% | -9.95% | 1.56% | -3.3% | -40.9% | -11.9% | -13% | -22.2% | -14.5% | GI50 (OVCAR-3 [1]): 0.28 µM; LC50 (OVCAR-3 [1]): > 100 µM; TGI (OVCAR-3 [1]): 0.96 µM; GI50 (NCI-H460): 0.154 µM; LC50 (NCI-H460): > 100 µM; TGI (NCI-H460): 1.05 µM; viability at 10 µM (SK-MEL-28): -16.4%; viability at 10 µM (UACC-62): -13.3%; viability at 10 µM (KM12): -2.6%; viability at 10 µM (A549): -14.3%; GI50 (OVCAR-5): 0.361 µM; LC50 (OVCAR-5): > 100 µM; TGI (OVCAR-5): 2.86 µM; viability at 10 µM (PC-3): -9.66%; viability at 10 µM (UO-31): -19.7%; viability at 10 µM (HOP-92): -20.1%; viability at 10 µM (HL-60(TB)): -18.8% |
| CCOc1cc2c(cc1OCC)C1CC(O)C(O)C(O)C1NC2=O (racemic) | 101% | 103% | 109% | 99.2% | 106% | 97.9% | 102% | 98.9% | 98.9% | 87% | 89.5% | 106% | 100% | 88.4% | 96.3% | 96.1% | 101% | 107% | 97.5% | 101% | viability at 10 µM (SK-MEL-28): 110%; viability at 10 µM (UACC-62): 96.1%; viability at 10 µM (KM12): 104%; viability at 10 µM (A549): 101%; viability at 10 µM (PC-3): 92.8%; viability at 10 µM (UO-31): 76.4%; viability at 10 µM (HOP-92): 102%; viability at 10 µM (HL-60(TB)): 94.5% |
| CCOc1c(OC)cc2c(c1OCC)C(=O)NC1C2CC(O)C(O)C1O (racemic) | 109% | 107% | 105% | 106% | 99.6% | 97.1% | 106% | 103% | 92.4% | 85.2% | 88.9% | 113% | 101% | 91.8% | 100% | 99.9% | 102% | 103% | 103% | 104% | viability at 10 µM (SK-MEL-28): 108%; viability at 10 µM (UACC-62): 95.7%; viability at 10 µM (KM12): 102%; viability at 10 µM (A549): 94.2%; viability at 10 µM (PC-3): 93.3%; viability at 10 µM (UO-31): 81.8%; viability at 10 µM (HOP-92): 84%; viability at 10 µM (HL-60(TB)): 86.6% |
| CCOc1cc2c(c(O)c1OCC)C(=O)NC1C2CC(O)C(O)C1O (racemic) | 107% | 103% | 109% | 101% | 99.7% | 97% | 102% | 94.1% | 93.4% | 95.7% | 92.6% | 110% | 103% | 93.8% | 104% | 102% | 99% | 104% | 99.8% | 106% | viability at 10 µM (SK-MEL-28): 105%; viability at 10 µM (UACC-62): 93%; viability at 10 µM (KM12): 106%; viability at 10 µM (A549): 92.8%; viability at 10 µM (PC-3): 100%; viability at 10 µM (UO-31): 89.4%; viability at 10 µM (HOP-92): 78.5%; viability at 10 µM (HL-60(TB)): 102% |
| CCOc1c(OC)cc2c(c1O)C(=O)NC1C2CC(O)C(O)C1O (racemic) | 110% | 106% | 108% | 98.6% | 100% | 101% | 103% | 102% | 93.5% | 91.3% | 92.3% | 115% | 104% | 91.2% | 104% | 107% | 102% | 102% | 100% | 103% | viability at 10 µM (SK-MEL-28): 105%; viability at 10 µM (UACC-62): 93.1%; viability at 10 µM (KM12): 104%; viability at 10 µM (A549): 94.7%; viability at 10 µM (PC-3): 100%; viability at 10 µM (UO-31): 92.9%; viability at 10 µM (HOP-92): 85.2%; viability at 10 µM (HL-60(TB)): 100% |
